Data set [1] deals with Ki-67. In words: Immunohistochemistry of ACC primagrafts, Ki-67. It is filed as in vivo, nude mice. The note with it: ACC x6, x9, x11 primagrafts at conclusion of long-term studies. An excerpt: (§1) Primagraft experiments: For in vivo drug testing, ACC tumor fragments from host animals were implanted subcutaneously into the flank of nude mice (CRL: ATH/NU). Once tumors reached 125-250 mm3, mice were randomized to receive vehicle or drug diluted in 10:90 DMSO:10% hydroxypropyl-beta-cyclodextrin orally until controls reached a tumor volume endpoint of 1-2 cm3 (4-9 mice per group: x5M1 and x6, 4 treated vs. 9 vehicle controls; x9, 4 treated vs. 5 vehicle controls; x11, 5 treated vs. 8 vehicle controls). Mice were treated with ATRA (ACC x6 and x11: 4 mg/mL, 0.2 mL flat dose; ACC×9: 3 mg/mL, 0.2 mL flat dose) or isotretinoin (30 mg/mL, 0.2 mL flat dose). Tumor growth was monitored and mice weighed twice weekly and studies ended when final group reached tumor volume endpoint. No statistical methods were employed to determine the sample size, and no blinding of investigators was performed. […]
(§2) Immunohistochemistry: Sectioning and staining was carried out by the Dana-Farber/Harvard Cancer Center Specialized Histopathology Core using standard procedures on ACC x6, x9, and x11 samples (from long-term tumor growth inhibition studies). […] Primary antibody was detected using Bond Polymer Refine Detection kit. […] Images (>200 nuclei each) from three different individual primagrafts were blindly quantitated.

Data set [2] concerns MYB. Nature of the data set: Western blot of ACC primagrafts, MYB. It is filed as in vivo, human. The note with it: long-term ACC x11 and short-term (3 days) ACC x5M1 primagrafts.
Description: as §1
(§3) Western blots: ACC x11 (from long-term tumor growth inhibition studies) and ACC x5M1 (from short-term kinetics studies) primagrafts were mechanically homogenized in RIPA lysis buffer (Thermo Scientific) supplemented by addition of complete protease inhibitor cocktail (Roche). Protein concentrations were determined by DC protein assay (BioRad).
On the technique in general: A western blot detects proteins with antibodies after separation by electrophoresis.

Data set [3] relates to human salivary adenoid cystic carcinoma cell. The following applies: Chen et al. 1998; cell line said not to be bona fide ACC; cited from earlier work.
Data set [4] deals with cleaved caspase-3. In words: Immunohistochemistry of ACC primagrafts, cleaved caspase-3. Type of data set: in vivo, nude mice. The note with it: ACC x6, x9, x11 primagrafts at conclusion of long-term studies.
Description: as §1, §2

The subject of data set [5] is MYB. Nature of the data set: ChIP-seq of short-term ACC x9 primagrafts, MYB binding. It is filed as in vivo, human. The note with it: 3 days.
Description: as §1
All ChIP-Seq datasets were aligned to UCSC build version hg19 of the human genome using Bowtie2 (version 2.2.1) with the following parameters: -end-to-end, —NO, -L20. […] ChIP-seq enrichment was determined as described previously in a 5 kb region (as counts per million) centered on the enriched peak regions (n=1,868) of the given MYB datasets. […]

The test system of data set [6] is 1-plastin. Nature of the data set: In situ hybridization of whole embryos, 1-plastin. Type of data set: in vivo, zebrafish. The following applies: 10 μM, treated 48-72 hpf, fixed at 72 hpf. Here is the method: In situ hybridization: Wildtype AB embryos from the same clutch were treated between 48-72 hpf with 10 μM retinoic acid agonists diluted in E3, fixed at 72 hpf in 4% paraformaldehyde, and processed as previously described. CHT staining in the embryos was blindly scored as high, medium, or low, and summed across 3 independent experiments as done previously. Representative images were acquired on a Nikon ZMS 18 microscope.

The test system of data set [7] is mpeg1:mCherry positive cells. In words: Confocal imaging of CHT, mpeg1:mCherry positive cells. Type of data set: in vivo, zebrafish. The note with it: 10 μM, treated 48-72 hpf, imaged at 72 hpf. Here is the method:
(§4) Confocal imaging: Double transgenic c-myb:GFP; lyz:dsRed or c-myb:GFP; mpeg1:mCherry embryos from the same clutch were treated between 48-72 hpf (n=4 biological replicates per treatment group) with 10 μM ATRA diluted in E3. Live 72 hpf embryos were embedded in 0.8% low-melting point agarose containing 0.04 mg/mL Tricaine and imaged on a Nikon Eclipe Ti microscope with 20× Plan-Apo DIC N.A. 0.75. CHT cells were counted in Z-stack image projections processed on Imaris software (Bitplane).

Data set [8] has as its system lyz:dsRed positive cells. In words: Confocal imaging of CHT, lyz:dsRed positive cells. Type of data set: in vivo, zebrafish. The following applies: 10 μM, treated 48-72 hpf, imaged at 72 hpf. As for the experimental part:
as §4

Data set [9] relates to RARA and RARG. In words: RNA-seq of short-term ACC x9 primagrafts, RARA and RARG. It is filed as in vivo, human. The following applies: 3 days, n=3, p<0.05.
Description: as §1, with “performed. After long-term tumor growth inhibition studies were completed, the ATRA treated mice stopped receiving treatment and were maintained longer as indicated to monitor tumor maintenance after treatment cessation. For long-term tumor growth inhibition studies, ACC x6, x9, and x11 models were used and primagrafts collected at the completion of the study. Short-term kinetics studies were also undertaken with ACC x9 and x5M1 primagrafts involving 3 day ATRA treatments.” for “performed.”

Data set [10] relates to RARα. Nature of the data set: Western blot of ACC primagrafts, RARα. The note with it: long-term ACC x11 and short-term (3 days) ACC x5M1 primagrafts. Type of data set: in vivo, human.
Description: as §1, §3

The conditions of data set [11]: patients, 45 mg/m2 oral dose of ATRA, first day of treatment; cited from earlier work.

Structures are written as SMILES. Entries after “also recorded” stand apart in the source; their conditions may differ.

Turning to `CC(C=CC1=C(C)CCCC1(C)C)=CC=C/C(C)=C/C(=O)O` [ATRA, (E)-3,7-dimethyl-9-(2,6,6-trimethyl-1-cyclo-hexen-1-yl)-2,4,6,8-nonatetraenoic acid], in [1], the “proliferation (Ki-67 positive nuclei)” value is given as “no significant effect”. The “MYB protein expression (wildtype and fusion)” value in [2] was “decreases”. For the same compound, the “effect on cell proliferation in vitro” value in data set [3] is given as “anti-proliferative effects”. Further, the “cell death (cleaved caspase-3 positive nuclei)” value in data set [4] is listed as “induced more cell death”. For the same compound, the “enrichment among MYB-bound regions genome-wide” value in data set [5] is on record as “reduced enrichment”. Also, the “1-plastin expression (staining) in the CHT” value in [6] was “no significant difference; also recorded: did not decrease staining”. Also, the “mpeg1:mCherry+ cells in the CHT” value in data set [7] was “no significant difference; also recorded: no significant effect”. For the same compound, in data set [8], the “lyz:dsRed+ cells in the CHT” value is “no significant difference; also recorded: no significant effect”. For the same compound, in data set [9], the “increase of RARA and RARG gene levels” value is listed as around 40%. Further, in data set [10], the RARα protein expression entry was “increased”. Moreover, the median plasma concentration entry in data set [11] is “approximately 1 μM”.

The values are drawn from patent US10668039B2, “Methods for treatment of adenoid cystic carcinoma” (THE CHILDREN'S MEDICAL CENTER CORPORATION, priority 2016, dated 2020).
